US11124523B2, “2,6-dioxaspiro [4,5] decane derivatives and preparation method therefor and pharmaceutical applications thereof” (SHANDONG LUYE PHARMACEUTICAL CO., LTD., priority 2017, dated 2021)
Where a name gives a salt, the structure may show the parent alone.

Key:
[1] = target: human μ-subtype opioid receptor (hMOR) (Homo sapiens (Human), UniProt P35372); test: MOR cAMP agonist activity test; assay type: cell-based; settings: for Emax: maximum effect of enkephalin DAMGO was 100%
Description: Test 1: MOR cAMP Agonist Activity Test
1.1 Experimental Purpose: To test the cAMP agonist activity of the compounds of the present disclosure on the human μ-subtype opioid receptor (hMOR).
a. Compound samples were dissolved in DMSO to a storage concentration of 10 mM.
b. A series of diluted samples were formulated on a 384-well LDV plate. A total of 11 concentration points were obtained by 3.162-fold gradient dilution.
c. The series of diluted samples were transferred to an experimental plate (Corning-3824) by using an Echo machine, wherein 30 nL was transferred corresponding to each well.
The experiment was performed using a cAMP detection kit from Cisbio (Cisbio #62AM4PEJ).
a. Assay buffer and stimulation buffer (STB) required for the experiment were formulated.
Stimulation Buffer: formulated with the assay buffer, containing 5 μM NKH477 (CAS: 138605-00-2) and 200 μM IBMX (3-isobutyl-1-methylxanthine)
b. […] The number of cells in the well was 10,000 cells/well.
c. The experimental plate was placed in a 37° C. constant-temperature incubator for incubation. The incubation was performed for 40 minutes.
d. A cAMP standard concentration curve was prepared. The first concentration point was at 2848 nM, and a total of sixteen detection concentrations were obtained by 4-fold gradient dilution. There were three replicates for each concentration point.
e. The cAMP detection kit from Cisbio was provided therein with a d2-labeled cAMP reagent (d2 reagent) and an Eu-labeled cAMP antibody reagent (Crypate reagent). The above two reagents were formulated according to the kit instructions, and then added to the sample experimental plate and to the cAMP standard concentration experimental plate, respectively. It was necessary to add 5 μL of the d2 reagent and then 5 μL of the Cryptate reagent to each well.
f. After the experimental plates were left at room temperature for 60 minutes, the experimental plates were read on the Envision.

[2] = Metabolic stability in liver microsomes; assay type: in vitro ADME; settings: pH 7.4; human liver microsomes 0.5 mg protein/mL; 45 mg microsome protein/g liver, 20 g liver/kg; read-out: Intrinsic Clearance CLint(liver) in Human Liver
Description: Test 3: Metabolic Stability in Liver Microsomes
3.1 Experimental Purpose: To test the metabolic stability of the compounds of the present disclosure in human liver microsomes
a. All samples as well as testosterone, diclofenac and propafenone acting as reference substances were dissolved in DMSO to a storage concentration of 10 mM.
b. Intermediate Solution: 5 μL of the substance to be tested or the reference substance was diluted with 45 μL of DMSO (with 450 μL of 1:1 methanol/water).
c. Working Solution: the intermediate solution was diluted with 450 μL of 100 mM potassium phosphate buffer solution (pH 7.4).
Assay Buffer: 100 mM potassium phosphate buffer (pH 7.4) • 10 mM MgCl2
Liver Microsome Solution (final concentration: 0.5 mg protein/mL):
Human liver microsomes, obtained from BD, Cat No. 452117, Lot No. 38291
b. 10 μL of the working solution containing the substance to be tested or the reference substance was added to each of plates (T0, T5, T10, T20, T30, T60, NCF60).
c. The liver microsome solution was dispensed into a 96-well plate in an amount of 680 μL/well, then 80 was added, and then T was added to each of the plates. The above incubation plate was placed at 37° C. and pre-incubated for approximately 10 minutes.
d. 10 μL of 100 mM potassium phosphate buffer was added to each well in the NCF60 plate.
e. After the pre-incubation was finished, the NADPH regeneration system working solution was dispensed into the 96-well plate in an amount of 90 μL/well, and then added to each of the plates in an amount of 10 μL/well to start the reaction.
f. The plates were incubated for an appropriate time (e.g., 5, 10, 20, 30, or 60 minutes).
g. The stop solution (refrigerated at 4° C., containing 100 ng/mL Tolbutamide and 100 ng/mL Labetalol) was added to each sample well in an amount of 300 μL/well.
h. The sample plates were shaken well for about 10 minutes and centrifuged at 4,000 rpm for 20 minutes at 4° C. During the centrifugation, 300 μL of HPLC water was added to each well, and 100 μL of the supernatant was taken for LC-MS/MS analysis.
T1/2 and Clint(mic) were calculated by the following formula: […]
Each gram of liver contained 45 mg of microsome protein, and the liver weight was 20 g/kg in a human.
Ct was the concentration at time t, t was the incubation time, C0 was the concentration at time 0, Ke was an elimination rate constant, Clint(mic) was the intrinsic clearance in liver microsomes, and Clint(liver) was the intrinsic clearance in liver. CLint(mic)=0.693/half-life/mg of microsome protein per mL(concentration of microsomes during incubation) CLint(liver)=CLint(mic)×mg of microsome protein/g of liver weight×a ratio of liver weight to body weight 3.4 Test Results

CYP2C19 = CYP2C19 (Homo sapiens (Human), UniProt P33261); test: Inhibition of cytochrome P450 isoenzymes, CYP2C19; assay type: in vitro ADME; settings: >50 μM: inhibitory effect less than 50% at 50 μM; read-out: CYP 2C19 IC50
Chain of CYP2C19 (P33261 whole entry, canonical isoform): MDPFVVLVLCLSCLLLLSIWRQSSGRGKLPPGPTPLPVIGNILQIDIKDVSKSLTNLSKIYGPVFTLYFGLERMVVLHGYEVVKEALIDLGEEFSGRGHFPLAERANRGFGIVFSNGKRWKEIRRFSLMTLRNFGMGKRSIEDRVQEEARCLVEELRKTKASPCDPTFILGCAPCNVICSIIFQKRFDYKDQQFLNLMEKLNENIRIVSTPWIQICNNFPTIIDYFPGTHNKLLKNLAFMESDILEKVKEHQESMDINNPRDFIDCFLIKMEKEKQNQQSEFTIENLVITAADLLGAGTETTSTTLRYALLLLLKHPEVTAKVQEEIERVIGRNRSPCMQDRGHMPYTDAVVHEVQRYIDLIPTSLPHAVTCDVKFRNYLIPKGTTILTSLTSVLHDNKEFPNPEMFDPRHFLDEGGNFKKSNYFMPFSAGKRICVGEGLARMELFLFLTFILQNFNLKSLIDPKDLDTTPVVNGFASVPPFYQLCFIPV
Description: 4.1 Experimental Purpose: To test the inhibitory effects of the compounds of the present disclosure on different isoforms of human cytochrome P450 isoenzymes
1) The activities of CYP1A2, 2C9, 2C19, 2D6, and 3A4 were measured using a standard substrate method. In each reaction, the enzyme activities were measured in the presence and absence of the substance to be tested, wherein a single sample was measured at a total of eight test concentrations. A 5-in-1 mixed inhibitor was used.
2) An incubation matrix comprising microsomes, a substrate, and an inhibitor or the compound to be tested was pre-incubated at 37° C. for 5 minutes, and then NADPH was added to start the reaction.
3) After the incubation, acetonitrile with an internal standard was added to stop the reaction.
4) Metabolites generated by the substrates were measured by using the LC-MS/MS method, and the peak area ratio of each metabolite to the internal standard was evaluated and the inhibition rate and IC50 were calculated.

Question: Which Emax [1] does the source give for `c1ccc([C@]2(CCNCc3scc4c3CCC4)CCO[C@]3(CCOC3)C2)nc1` [(+)-2] here?
Answer: 96%

Question: What about the CLint scaled [2] of the same compound?
Answer: 49 mL/min/kg

Question: What about the IC50 (CYP2C19) of the same compound?
Answer: > 50 µM

Question: For `Fc1ccc([C@]2(CCNCc3cccc(Cl)c3)CCO[C@]3(CCOC3)C2)nc1` [(+)-16], which EC50 [1] is on record?
Answer: 0.0005 µM

Question: What about the Emax [1] of the same compound?
Answer: 91.7%

Question: What about the CLint scaled [2] of the same compound?
Answer: 29.2 mL/min/kg

Question: What about the IC50 (CYP2C19) of the same compound?
Answer: 33.7 µM

Question: With `Cc1cccc(CNCC[C@@]2(c3ccc(F)cn3)CCO[C@]3(CCOC3)C2)c1` [Hydrochloride Salt of (+)-22] as the compound, how does the Emax [1] read?
Answer: 93.3%

Question: What about the CLint scaled [2] of the same compound?
Answer: 13.5 mL/min/kg

Question: And the IC50 (CYP2C19)?
Answer: > 50 µM

Question: Which results are given for `Fc1ccc([C@]2(CCNCc3cccc(F)c3)CCO[C@]3(CCOC3)C2)nc1` [Hydrochloride Salt of (+)-23]?
Answer: EC50 [1]: 0.001 µM; Emax [1]: 84.5%; CLint scaled [2]: 15.6 mL/min/kg; IC50 (CYP2C19): > 50 µM

Question: Which Emax [1] does the source give for `COc1ccsc1CNCC[C@@]1(c2ccccn2)CCOC2(CCCC2)C1` [compound 1, Oliceridine, reference compound] here?
Answer: 82.7%

Question: What about the CLint scaled [2] of the same compound?
Answer: 314 mL/min/kg

Question: And the IC50 (CYP2C19)?
Answer: > 50 µM
